Key:
[1] = test system: beta pancreatic INS-1 cells; test: Prevention of beta cells apoptosis (ssDNA apoptosis detection kit); type: cell-based; set-up: concentration or dose not given beside the values; conditions: 1 h pre-incubation then 24 h in apoptotic conditions, drugs tested alone
Description: The beta pancreatic INS-1 cells have been selected for this study. The cells are cultured in complete medium, RPMI 1640 10 mM glucose supplemented with 1 mM sodium pyruvate, 50 μM 2-mercaptoethanol, 2 mM glutamine, 10 mM HEPES, 100 IU/mL penicillin, 100 μg/mL streptomycin and 10% heat-inactivated fetal calf serum (FCS), as described by Asfari et al. (23). INS-1 cells are plated (4.5×10^4 cells/well) in 96-well poly-ornithine coated plates and cultured at 37° C. in a humidified atmosphere of 95% air/5% CO2. The day after, cells are pre-incubated with the tested molecules for 1 h. Then, after a medium change, cells are cultured for 24 h in a medium containing the tested molecules and 30 mM glucose, 0.05 mM myristic acid, 25 ng/mL INF, 25 ng/mL TNF and 5 ng/mL IL.
The efficacy of compounds to prevent apoptosis is then evaluated by the highly specific apoptosis detection kit from Chemicon (Ref. APT225). This procedure is based on the detection of single-stranded DNA (ssDNA) which is a specific marker of apoptotic cells (24).
Results are expressed in optical density (OD) arbitrary unit and % of reduction of the apoptosis induced by apoptotic condition. Following a Dunnett t-test, all compounds showing a significant decrease in % of apoptotic cells compared to apoptotic control conditions are considered active.

[2] = test system: human primary diabetic myotubes; test: Glucose uptake in human diabetic myotube primary cultures; type: cell-based; conditions: myotubes from a diabetic patient, 24 h pre-treatment
Description: The myotubes from a diabetic patient were grown on HAM's F10-based media (Sigma, ref. N6908) supplemented with 15% of fetal bovine serum, 1 mM glutamine.
Myoblasts were seeded at 380,000 cells/well in 12-well plates. After 2 days of proliferation, the cells were placed in reduced serum conditions (2% horse serum) to induce differentiation. The myotubes were used after 5 days of differentiation.
Dulbecco's modified Eagle's medium (DMEM)-based media (Gibco, ref. 31053-028) supplemented with 2% heat-inactivated horse serum, 2% Glutamax (Gibco, ref. 35050) and washed for glucose uptake assays. Compounds were dissolved in DMSO to reach the desired final concentration prior to use.
The differentiated myotubes were treated for 24 h with the compositions of the invention before the assay.
Before the initiation of glucose uptake, the cells were deprived of serum and glucose. A deprivation was first performed in DMEM media containing reduced glucose (1 g/L) and no serum. After adding the compounds at the desired concentrations, the cells were incubated at 37° C. during 2 h30. […] A subsequent glucose and serum deprivation was performed in HBS buffer at 37° C. for 2 hours. The cells were treated with a mixture of 2-[^3H]deoxyglucose 10 Ci/mM+2-deoxy-D-glucose at 10 μM for 30 min. […] The cell lysates were transferred into scintillation vials for the measurement of radioactivity with a MicroBeta counter.

[3] = test system: TNFα-induced insulin resistant 3T3-L1 differentiated adipocytes; test: Glucose uptake in TNFα-induced insulin resistant 3T3-L1 differentiated adipocytes; type: cell-based; conditions: for enhancement of glucose uptake: drug alone, vs non-treated insulin-resistant cells (TNFα); for enhancement of glucose uptake, combination with metformin: ifenprodil 3.3 nM and metformin 100 μM, combined or alone at the same concentrations
Description: 3T3L1 fibroblasts were maintained in DMEM 4.5 g/L glucose supplemented with 5% calf serum donor, 5% newborn calf serum, 100 U/mL penicillin, and 100 μg/mL streptomycin at 37° C. under a 10% CO2 atmosphere. Cells were grown on 24-well plates at a density of 2560 cells/well in 0.5 mL of growth medium (DMEM 4.5 g/L glucose supplemented with 10% FCS, 100 U/mL penicillin, and 100 μg/mL streptomycin). […] Fresh media were replaced after two days.
Glucose uptake was measured by quantification of incorporated radiolabeled glucose, after an incubation step with 2-deoxy-D[1,2^3H] glucose for 5 min. Glucose uptake was arrested by two washing steps in ice-cold PBS 1×, then were solubilized in 0.1N NaOH for 30 min. Cell-associated radioactivity was then counted using a MicroBeta counter after adding 600 μL per well of scintillant (Optiphase SuperMix3).
In parallel, protein quantification was determined by a colorimetric assay derived from the Lowry method. Results are expressed in nmol of glucose incorporated/5 mn/mg of protein and in % of control or basal condition (100%).

[4] = test system: hepatocytes; test: Glucose production by hepatic cells; type: cell-based, rat; conditions: long-term, 0.01 μM (10 nM)
Description: Hepatocytes are isolated from 24 h-fasted male Wistar rats (200-250 g body weight) by ex situ liver perfusion in the presence of collagenase. Cell viability is validated by a trypan blue exclusion test. […] After plating, the medium is removed and cells are cultured for 16 h in RPMI medium without glucose (supplemented with the tested drugs for long-term evaluation). The following day, hepatic glucose production is assessed in Krebs-Ringer Bicarbonate HEPES buffer (KRBH; pH 7.4) in the presence of the neoglucogenic substrates (lactate 10 mM and pyruvate 1 mM) and the tested molecules for 4 h (short-term).
Supernatants are collected and glucose concentrations are determined using a glucose oxidase kit (Instrumentation Laboratory 0018250840). In parallel, protein quantification is performed using the colorimetric Lowry method.
Results are expressed in nmol glucose/mg protein and % of control condition (KLP: KRBH containing lactate and pyruvate).

Compound: CC(C(O)c1ccc(O)cc1)N1CCC(Cc2ccccc2)CC1 (stereo not shown) [ifenprodil]
- Percentage of apoptosis reduction [1]: 54%
- enhancement of glucose uptake ([2]; 0.1 μM): improvement
- enhancement of glucose uptake ([2]; 1 μM): improvement
- enhancement of glucose uptake ([3]; 10 nM): improvement
- enhancement of glucose uptake ([3]; 100 nM): improvement
- enhancement of glucose uptake ([3]; 1 μM): +140%
- enhancement of glucose uptake, combination experiment ([3]; drugs combined at a dose as low as 3.3 nM, or used individually, vs TNFα cells, Dunnett's test): No significant effect
- enhancement of glucose uptake, combination with metformin ([3]; vs TNFα cells): No significant effect
- enhancement of glucose uptake, combination with metformin ([3]; vs TNFα cells, listed as Ifenprodil): does not lead to any significant improvement
- reduction of glucose production [4]: −22%

— US10596160B2, “Compositions, methods and uses for the treatment of diabetes and related conditions by controlling blood glucose level” (PHARNEXT, priority 2012, dated 2020)
